Results from patent US12384789B2, “Compounds for treating Huntington's disease” (PTC Therapeutics, Inc., priority 2017, dated 2025).
pIC50: −log10 of the molar value.

Tested on: Endogenous Huntingtin Protein
Test: Endogenous Huntingtin Protein Assay (Meso Scale Discovery ELISA-based electrochemiluminescence)
Type: cell-based
Conditions: MSD electrochemiluminescence, Table 1
Protocol: Compounds of Formula (I) were tested using the Meso Scale Discovery (MSD) Assay provided in International Application No. PCT/US2016/066042, filed on Dec. 11, 2016 and claiming priority to United States Provisional Application U.S. 62/265,652 filed on Dec. 10, 2015, the entire contents of which are incorporated herein by reference.
The Endogenous Huntingtin Protein assay used in Example 1 was developed using the ELISA-based MSD electrochemiluminescence assay platform.
Endogenous Huntingtin Protein Assay
Meso Scale Discovery (MSD) 96-well or 384-well plates were coated overnight at 4° C. with MW1 (expanded polyglutamine) or MAB2166 monoclonal antibody (for capture) at a concentration of 1 μg/mL in PBS (30 μL per well). Plates were then washed three times with 300 μL wash buffer (0.05% Tween-20 in PBS) and blocked (100 μL blocking buffer; 5% BSA in PBS) for 4-5 hours at room temperature with rotational shaking and then washed three times with wash buffer.
Samples (25 μL) were transferred to the antibody-coated MSD plate and incubated overnight at 4° C. After removal of the lysates, the plate was washed three times with wash buffer, and 25 μL of #5656S (Cell signaling; rabbit monoclonal) secondary antibody (diluted to 0.25 μg/mL in 0.05% Tween-20 in blocking buffer) was added to each well and incubated with shaking for 1 Hour at room temperature. Following incubation with the secondary antibody, the wells were rinsed with wash buffer after which 25 μL of goat anti-rabbit SULFO TAG secondary detection antibody (required aspect of the MSD system) (diluted to 0.25 μg/mL in 0.05% Tween-20 in blocking buffer) was added to each well and incubated with shaking for 1 hour at room temperature. After rinsing three times with wash buffer, 150 μL of read buffer T with surfactant (MSD) were added to each empty well, and the plate was imaged on a SI 6000 imager (MSD) according to manufacturers' instructions provided for 96- or 384-well plates.

| SMILES | pIC50 |
| --- | --- |
| Cc1cn2nc(-c3cc(F)c4cc(C5CCN(CCF)CC5)nnc4c3)cc(C#N)c2n1 [Compound 179, 6-{5-fluoro-3-[1-(2-fluoroethyl)piperidin-4-yl]cinnolin-7-yl}-2-methylimidazo[1,2-b]pyridazine-8-carbonitrile] | ≥ 7.00 |
| Cc1cc(-c2cc(F)c3cc(C4=CCNCC4)nnc3c2)cc2cn(C)nc12 [Compound 55, 7-(2,7-dimethyl-2H-indazol-5-yl)-5-fluoro-3-(1,2,3,6-tetrahydropyridin-4-yl)cinnoline] | ≥ 7.00 |
| CCCc1cc(-c2cc(F)c3cc(C4CCNCC4)nnc3c2)nn2cc(C)nc12 [Compound 204, 5-fluoro-7-(2-methyl-8-propylimidazo[1,2-b]pyridazin-6-yl)-3-(piperidin-4-yl)cinnoline] | ≥ 7.00 |
| CCN1CCC(c2cc3c(F)cc(-c4cc(C#N)c5nc(C)cn5n4)cc3nn2)CC1 [Compound 114, 6-[3-(1-ethylpiperidin-4-yl)-5-fluorocinnolin-7-yl]-2-methylimidazo[1,2-b]pyridazine-8-carbonitrile] | ≥ 7.00 |
| Cc1cn2nc(-c3cc(F)c4cc(C5CCNCC5)nnc4c3)cc(-n3ccnc3)c2n1 [Compound 194, 5-fluoro-7-[8-(1H-imidazol-1-yl)-2-methylimidazo[1,2-b]pyridazin-6-yl]-3-(piperidin-4-yl)cinnoline] | 6.30 to 7.00 |
| Cc1cn2cc(-c3nnc4cc(C5CCNCC5)ccc4n3)cc(C)c2n1 [Compound 27, 3-(2,8-dimethylimidazo[1,2-a]pyridin-6-yl)-7-(piperidin-4-yl)-1,2,4-benzotriazine] | 6.30 to 7.00 |
| Cc1cn2nc(-c3cc(F)c4cc(C5CCNCC5)nnc4c3)cc(OCCCn3cnc4ccccc43)c2n1 [Compound 150, 7-{8-[3-(1H-benzimidazol-1-yl)propoxy]-2-methylimidazo[1,2-b]pyridazin-6-yl}-5-fluoro-3-(piperidin-4-yl)cinnoline] | ≥ 7.00 |
| Cn1cc2cc(-c3ccc4nc(C5CCNCC5)ccc4c3)ccc2n1 [Compound 3, 6-(2-methyl-2H-indazol-5-yl)-2-(piperidin-4-yl)quinolone] | 6.30 to 7.00 |
| Cc1cc2cc(-c3cc(F)c4cc(C5CCNCC5)nnc4c3)[nH]c2c(C)n1 [Compound 191, 7-(5,7-dimethyl-1H-pyrrolo[2,3-c]pyridin-2-yl)-5-fluoro-3-(piperidin-4-yl)cinnoline] | 6.30 to 7.00 |
| Cc1nc2c(C)cc(-c3cc(F)c4cc(C5C[C@@H](C)N(C)[C@@H](C)C5)nnc4c3)nc2o1 (stereo partly drawn) [Compound 226, 5-(5-fluoro-3-((2S,4R,6R)-1,2,6-trimethylpiperidin-4-yl)cinnolin-7-yl)-2,7-dimethyloxazolo[5,4-b]pyridine] | ≥ 7.00 |
| CCN1CCC(c2cc3c(F)cc(-c4cc(C5CC5)c5nc(C)cn5n4)cc3nn2)CC1 [Compound 115, 7-(8-cyclopropyl-2-methylimidazo[1,2-b]pyridazin-6-yl)-3-(1-ethylpiperidin-4-yl)-5-fluorocinnoline] | ≥ 7.00 |
| Cc1cn2cc(-c3cc(F)c4cc(C5CCNCC5)nnc4c3)cc(C#N)c2n1 [Compound 93, 6-[5-fluoro-3-(piperidin-4-yl)cinnolin-7-yl]-2-methylimidazo[1,2-a]pyridine-8-carbonitrile] | ≥ 7.00 |
| Cn1cc2cc(-c3cc(F)c4nc(C5CCNCC5)ncc4c3)cc(F)c2n1 [Compound 36, 8-fluoro-6-(7-fluoro-2-methyl-2H-indazol-5-yl)-2-(piperidin-4-yl)quinazoline] | ≥ 7.00 |
| CCN1CCC(c2cc3c(F)cc(-c4nc5c(C)nc(C)cc5o4)cc3nn2)CC1 [Compound 136, 7-(4,6-dimethyl[1,3]oxazolo[4,5-c]pyridin-2-yl)-3-(1-ethylpiperidin-4-yl)-5-fluorocinnoline] | ≥ 7.00 |
| Cc1cc2oc(-c3cc(F)c4cc(C5CCNCC5)nnc4c3)nc2c(C)n1 [Compound 137, 7-(4,6-dimethyl[1,3]oxazolo[4,5-c]pyridin-2-yl)-5-fluoro-3-(piperidin-4-yl)cinnoline] | ≥ 7.00 |
| Cc1cn2nc(-c3ccc4cc(C5CCNCC5)nnc4c3)cc(C)c2n1 [Compound 84, 7-(2,8-dimethylimidazo[1,2-b]pyridazin-6-yl)-3-(piperidin-4-yl)cinnoline] | ≥ 7.00 |
| Cc1cn2nc(-c3cc(F)c4nc(C5CCN(C)CC5)nnc4c3)cc(C)c2n1 [Compound 69, 7-(2,8-dimethylimidazo[1,2-b]pyridazin-6-yl)-5-fluoro-3-(1-methylpiperidin-4-yl)-1,2,4-benzotriazine] | ≥ 7.00 |
| CCc1cc(-c2cc(F)c3cc(C4CCN(CC)CC4)nnc3c2)nn2cc(C)nc12 [Compound 121, 7-(8-ethyl-2-methylimidazo[1,2-b]pyridazin-6-yl)-3-(1-ethylpiperidin-4-yl)-5-fluorocinnoline] | ≥ 7.00 |
| CCN1CCC(c2cc3c(F)cc(-c4nc5c(C)nc(C)cc5s4)cc3nn2)CC1 [Compound 147, 7-(4,6-dimethyl[1,3]thiazolo[4,5-c]pyridin-2-yl)-3-(1-ethylpiperidin-4-yl)-5-fluorocinnoline] | 6.30 to 7.00 |
| Cc1cc(-c2ccc3nc(C4CCNCC4)ccc3c2)cc2cn(C)nc12 [Compound 15, 6-(2,7-dimethyl-2H-indazol-5-yl)-2-(piperidin-4-yl)quinoline] | ≥ 7.00 |
| CC[C@H]1CC(c2cc3c(F)cc(-c4cc(C)c5nc(C)cn5n4)cc3nn2)C[C@H](CC)N1C (stereo partly drawn) [Compound 131, 3-[(2S,6S)-2,6-diethyl-1-methylpiperidin-4-yl]-7-(2,8-dimethylimidazo[1,2-b]pyridazin-6-yl)-5-fluorocinnoline] | ≥ 7.00 |
| Cn1cc2cc(-c3nnc4cc(C5CCNCC5)ccc4n3)cc(C#N)c2n1 [Compound 26, 2-methyl-5-[7-(piperidin-4-yl)-1,2,4-benzotriazin-3-yl]-2H-indazole-7-carbonitrile] | ≥ 7.00 |
| CCN1CCC(c2cc(F)c3cc(-c4cc(F)c5nc(C)cn5c4)nnc3c2)CC1 [Compound 144, 7-(1-ethylpiperidin-4-yl)-5-fluoro-3-(8-fluoro-2-methylimidazo[1,2-a]pyridin-6-yl)cinnoline] | ≥ 7.00 |
| CCN1CCC(c2cc3c(F)cc(-c4cc(CCO)c5nc(C)cn5n4)cc3nn2)CC1 [Compound 206] | ≥ 7.00 |
| Cc1cn2nc(-c3cc4c(F)cc(C5CCNCC5)cc4nn3)cc(C)c2n1 [Compound 185, 3-(2,8-dimethylimidazo[1,2-b]pyridazin-6-yl)-5-fluoro-7-(piperidin-4-yl)cinnoline] | ≥ 7.00 |
| Cc1cn2cc(-c3cc(F)c4cc(C5CCNCC5)nnc4c3)cc2c(C)n1 [Compound 101, 7-(1,3-dimethylpyrrolo[1,2-a]pyrazin-7-yl)-5-fluoro-3-(piperidin-4-yl)cinnoline] | ≥ 7.00 |
| Cc1cn2nc(-c3cc(F)c4cc(C5CCN(CCO)CC5)nnc4c3)cc(C#N)c2n1 [Compound 178, 6-{5-fluoro-3-[1-(2-hydroxyethyl)piperidin-4-yl]cinnolin-7-yl}-2-methylimidazo[1,2-b]pyridazine-8-carbonitrile] | ≥ 7.00 |
| CCN1CCC(c2cc3c(F)cc(-c4cc(C)c5nc(C)cn5n4)cc3nn2)CC1 [Compound 76, 7-(2,8-dimethylimidazo[1,2-b]pyridazin-6-yl)-3-(1-ethylpiperidin-4-yl)-5-fluorocinnoline] | ≥ 7.00 |
| Cc1cn2nc(-c3cc(F)c4cc(C5CCNC5)nnc4c3)cc(C)c2n1 (centres unmarked) [Compound 143, 7-(2,8-dimethylimidazo[1,2-b]pyridazin-6-yl)-5-fluoro-3-(pyrrolidin-3-yl)cinnoline] | ≥ 7.00 |
